Source: patent US9687486B2, “Methods of treating atherosclerosis or myeloproliferative neoplasms by administering a lyn kinase activator” (THE TRUSTEES OF COLUMBIA UNIVERSITY IN THE CITY OF NEW YORK, priority 2012, dated 2017)
“Also recorded” adds a separate entry of the source.

Experiments:
ulcer = conditions: rats, 10 mg/kg, oral; Lipinski et al. 1980; cited from earlier work
Lyn tyrosine kinase = Lyn tyrosine kinase (Homo sapiens, UniProt P07948); conditions: Saporito et al. 2012; cited from earlier work
MkPs = experiment: MkP proliferation by EdU incorporation; assay type: cell-based, mouse; conditions: in the presence of TPO
Procedure: FIG. 3. Shown are results all from WT, Abcg4^-/- or Lyn^-/- MkPs (n=4). (A) Quantification of tyrosine-phosphorylated c-CBL in response to TPO. (B) Tyrosine-phosphorylated c-CBL levels 5 min after TPO treatment and with or without pretreatment with CD (3 mM), CD-chol (3 mM CD) for 30 min or rHDL (20 μg apoA-I/ml) for 2 hours. (C) Tyrosine-phosphorylated c-CBL with or without 5 min TPO treatment or SU6656 pretreatment (10 μg/ml for 2 h). (D) Cell surface c-MPL with or without TPO or SU6656 treatment for 2 h. (E) Tyrosine-phosphorylated c-CBL (5 min in response to TPO). (F) cell surface c-MPL (2 h TPO treatment) with or without pretreatment with CD-chol (3 mM CD) for 30 min. (G) 16 h EdU incorporation in the presence of TPO and with or without CD (3 mM), CD-Chol (3 mM CD) pretreatment for 30 min or rHDL (20 μg/ml) for 16 […]-5 and p-ERK1/2 levels with or without TPO for 10 minutes. TPO was 30 ng/ml for all the assays shown. Error bars are S.E.M. *P<0.05 WT vs Abcg4^-/- TPO and ^P<0.05 for treatment effect. Blood leukocytes and BM HSPCs were stained and analyzed or sorted as described (Murphy, A. J. et al. 2011). Briefly, BM cells from the mouse femurs and tibias were stained with a cocktail of antibodies to lineage committed cells (CD45R, CD19, CD11b, CD3e, TER-119, CD2, CD8, CD4, Ly-6C/G: All FITC, eBioscience), antibodies to Sca1 (Pacific Blue) and ckit (APC Cy7) to identify HSPC populations and LSK (lin-, Sac1+ and ckit+) cells, and antibodies to CD16/CD32 (FcγRII/III), CD34 to separate CMP (lin-, Sca1-, ckit+, CD34int, […] (lin-, Sca1-, ckit+, CD34int, […] (lin-, Sca1-, ckit+, CD34lo, FcγRII/IIIlo). For DNA content analysis (G2M phase), BM cells were fixed, and stained with DAPI (Invitrogen) prior to flow cytometry analysis. To determine in vivo cell proliferation, EdU (Invitrogen) was injected into mice via the tail vein 24 hours prior to being sacrificed. Cells were immunostained as described above in preparation for flow cytometry. Cells were then fixed and permeabilized using 0.01% saponin (w/v; Fluka) and 1% FCS (v/v) in IC fixation buffer (eBiosciences) for 30 minutes. Cells were then washed and stained with Alexa Fluor-conjugated azides using the Click-iT system (Invitrogen). Proliferation was quantified as percentage of EdU^+ cells by flow cytometry.

c-MPL = experiment: Cell surface c-MPL levels in MkPs by flow cytometry; assay type: cell-based, mouse
Procedure: Detection of c-MPL from in vivo and in vitro experiments was performed as follows. After harvesting BM progenitor cells, RBCs were lysed and the cells were then resuspended in FACS buffer. Cells were then stained with a cocktail of lineage markers to allow negative selection of BM progenitor cells (Sca1, CD127, CD45R, CD19, CD11b, CD3e, TER-119, CD2, CD8, CD4, and Ly-6C/G; all FITC; eBioscience) and progenitor cell markers, ckit, CD16/CD32 (FcγRII/III), CD34, CD41 and c-MPL or isotype control and allowed to stain on ice for 30 mins. Cells were then washed and stained with a fluorescently conjugated secondary anti-rabbit antibody to detect the anti-c-MPL for a further 30 mins on ice. After this the cells were washed, resuspended in FACS buffer and run on the LSRII. MEPs were identified as lin^− ckit^+CD16/CD32^loCD34^loCD41^−, while MkPs were identified as lin^−ckit^+CD16/CD32^loCD34^loCD41^+.

[1] = system: c-MPL(W515L) positive megakaryocyte progenitor cells; assay type: cell-based, mouse; conditions: tolimidone 10 μM, 10 days, IL-3 and TPO 1 ng/mL
Procedure: FIG. 21. BM cells of the recipient transplanted with BM cells expressing c-MPL(W515) were cultured for 10 days in the presence of IL-3 ([…]) and TPO (1 ng/mL) with or without tolimidone (10 μM). Megakaryocyte (Mk) colonies expressing c-MPL (W515) were identified by cell morphology and GFP expression. Identity of MK was also confirmed by staining for acetylcholinesterase activity. Count of Mk colonies (a); Mk count per colony (b); total colony per plate (c); fluorescence microscopy of a single colony (d). *p<0.05 between vehicle and tolimidone treatment.
Long-term, repeated rHDL infusions are less desirable relative to orally bioavailable small molecule compounds in treatment of chronic diseases such as MPNs. […] To assess the possibility that tolimidone limits megakaryopoiesis and thrombocytosis induced by c-MPL(W515), megakaryocyte colony formation assays with BM cells derived from mice with retroviral co-expression of c-MPL(W515L) and GFP in BM cells were used. […] Under the conditions of low TPO (1 ng/ml), the majority of cell colonies were non-megakaryocyte colonies.

platelets = experiment: Platelet count in Abcg4−/− mice with tolimidone; assay type: in vivo, mouse
[2] = system: BM cells derived from Jak2+/VF/Vavcre mice; experiment: Megakaryocyte colony formation assay, BM cells from Jak2+/VF/Vavcre mice; assay type: cell-based, mouse; conditions: tolimidone 10 μM, 14 days
Procedure: FIG. 22. BM cells from Jak^2+/VF/Vav^cre mice were plated and cultured for 14 days in the presence of IL-3 ([…]) and TPO (1 ng/mL) with or without tolimidone (10 μM). Megakaryocyte (Mk) colony was identified by cell morphology. Colony number/plate (a); Mk count/colony (b); and representative Mk colonies (c). Arrows indicate the projected proplatelet like structures from mature megakaryocytes. *p<0.05 between vehicle and tolimidone (10 μM).
In order to assess this possibility, megakaryocyte colony formation assay with BM cells derived from Jak2+/VF/Vavcre mice were performed. […] Moreover, many of the mature megakaryocytes in the vehicle group started to form long-projected cell structures resembling proplatelets.

c-CBL = experiment: c-Cbl tyrosine phosphorylation in MkPs in response to TPO, flow cytometry; assay type: cell-based, mouse
Procedure: BM progenitor cells were stimulated with TPO at the indicated concentration for the specified period of time at 37° C. and then immediately diluted with ice-cold buffer and placed on ice to prevent further changes in phosphorylation. Cells were then centrifuged and the pellet resuspended in BD fix buffer (BD Biosciences) for 10 mins on ice. The cells were washed with BD flow cytometry staining buffer, centrifuged and then resuspended in BD cytofix/perm buffer III for 20 mins. After this the cells were washed and resuspended in BD staining buffer and incubated with lineage (Sca1, CD127, CD45R, CD19, CD11b, CD3e, TER-119, CD2, CD8, CD4, and Ly-6G; all FITC; eBioscience) and progenitor cell markers, ckit, CD16/CD32 (FcγRII/III), CD34, CD41 and anti-phospho-c-Cbl ([…]/[…]; BD biosciences) or an isotype control for 30 mins on ice. The cells were then washed, resuspended in FACS buffer and run on an LSRII. Phosphorylated c-Cbl was normalized against isotype control staining.

Chain of Lyn tyrosine kinase (P07948 whole entry): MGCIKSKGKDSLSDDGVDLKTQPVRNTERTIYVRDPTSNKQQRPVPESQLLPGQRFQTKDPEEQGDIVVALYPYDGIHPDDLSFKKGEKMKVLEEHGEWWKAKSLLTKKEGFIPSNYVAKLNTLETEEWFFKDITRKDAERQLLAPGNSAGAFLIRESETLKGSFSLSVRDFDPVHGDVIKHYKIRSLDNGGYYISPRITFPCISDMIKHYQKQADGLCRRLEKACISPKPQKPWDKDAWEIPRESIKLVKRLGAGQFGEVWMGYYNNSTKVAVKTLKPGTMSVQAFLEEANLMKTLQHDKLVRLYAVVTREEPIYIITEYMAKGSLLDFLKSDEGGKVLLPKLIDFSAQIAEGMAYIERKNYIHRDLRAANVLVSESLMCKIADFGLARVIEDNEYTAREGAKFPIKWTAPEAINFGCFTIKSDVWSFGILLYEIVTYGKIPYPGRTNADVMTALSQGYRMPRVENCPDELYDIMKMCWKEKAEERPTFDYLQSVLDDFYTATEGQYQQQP

For Cc1cccc(Oc2cnc(=O)[nH]c2)c1 [Tolimidone], the anti-ulcer activity (ulcer) is given as “oral-active anti-ulcer activity”, the Lyn kinase activity (Lyn tyrosine kinase) is given as “selectively increases; also recorded: potent and selective” and the MkP proliferation (MkPs; Abcg4−/− MkPs) is given as “decreases”. The MkP proliferation (MkPs; WT MkPs) was “decreased”, the “cell surface c-MPL levels” value (c-MPL; Abcg4−/− MkPs, TPO 30 ng/ml) was “reverses; also recorded: reduces” and the “cell surface c-MPL levels” value (c-MPL; Abcg4−/− MkPs, tolimidone 10 μM and TPO for 2 h (FIG. 16)) was “significantly reduced”. For the same compound, the “effects in Lyn−/− MkPs (c-MPL, c-Cbl phosphorylation, proliferation)” value (c-MPL; Lyn−/− MkPs, expected) was “no effects”, the “cell surface c-MPL levels” value (c-MPL; WT MkPs, TPO 30 ng/ml) was “decreased” and the “cell surface c-MPL levels” value (c-MPL; WT and Abcg4−/− MkPs, BM cells of hypercholesterolemic Ldlr−/− mice, Tolimidone 10 μM, 30 ng/ml TPO, 2 hours (FIG. 20)) was “significantly reduced”. For the same compound, the “GFP-positive megakaryocytes in each colony” value [1] was “significantly reduced”, the “number of GFP-positive megakaryocyte colonies” value [1] was “significantly reduced” and the “total number of colonies” value [1] was “did not significantly affect”. For the same compound, the platelet count (platelets) was “reduces”, the “proportion of megakaryocytes that generated proplatelets” value [2] was “reduced” and the “number of megakaryocyte colonies” value ([2]; IL-3 and TPO 1 ng/mL) was “decreased”. For the same compound, the “number of megakaryocytes in each colony” value ([2]; IL-3 and TPO 1 ng/mL) was “decreased”, the c-CBL tyrosine phosphorylation (c-CBL; Abcg4−/− MkPs) was “increases” and the c-CBL tyrosine phosphorylation (c-CBL; WT MkPs) was “increased”.
